Results taken from article PMC7852560 (Neuropsychopharmacology, 2020).

Tests used:
Male C57Bl/6J mice = assay: Cannabinoid-induced tetrad; format: in vivo; settings: 10 mg/kg i.p., 30 min prior
Description: Male C57Bl/6J mice (PD > 70) were tested on the cannabinoid-induced tetrad, as previously described.
(i.p.) before testing. The tetrad was performed (1) catalepsy, (2) locomotion, (3) temperature, and (4) analgesia. Catalepsy: time (s) spent immobile with front paws on a plastic rod (1.5cm diameter), at a height of 4.5-cm from the table, before adjusting abnormal posture (either front paws being removed from the bar, or back paws climbing onto bar). Locomotion: horizontal activity (cm) was immediately measured in an open field test, following catalepsy, for 15-min. in 1-min bins. Temperature: rectal temperature (°C) was measured immediately following open-field testing, using a thermometer with rectal probe (Labcorp, Fisher, Waltham, MA). Analgesia: latency (s) to withdraw tail from hot water bath (52 °C), to assess tail-flick antinociception, was completed immediately following temperature readings.

CB1R [1] = target: T1, CB1R (Homo sapiens, UniProt P21554); assay: cell-based; format: cell-based; settings: hCB1R CHO cells, data not shown
T1 sequence (P21554 whole entry): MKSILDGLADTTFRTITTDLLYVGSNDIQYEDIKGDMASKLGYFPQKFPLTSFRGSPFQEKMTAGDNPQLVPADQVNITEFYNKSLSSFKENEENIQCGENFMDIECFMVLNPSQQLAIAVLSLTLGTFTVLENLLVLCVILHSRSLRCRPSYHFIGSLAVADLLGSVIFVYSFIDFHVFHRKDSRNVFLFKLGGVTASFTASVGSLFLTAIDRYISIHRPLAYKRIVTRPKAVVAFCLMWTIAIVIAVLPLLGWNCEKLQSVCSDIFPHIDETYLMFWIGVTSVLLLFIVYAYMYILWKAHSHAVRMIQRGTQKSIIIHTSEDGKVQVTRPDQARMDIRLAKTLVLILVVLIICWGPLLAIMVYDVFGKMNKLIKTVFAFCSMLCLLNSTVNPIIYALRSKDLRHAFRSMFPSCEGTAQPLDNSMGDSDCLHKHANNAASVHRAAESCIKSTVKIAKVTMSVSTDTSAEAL
Description: The cAMP BRET experiments were performed as previously described. Briefly, hCB1R HEK293 cells were transfected with 5 µg/10 cm dish of the CAMYEL biosensor using polyethylenimine. After 24 h, the cells were plated into white 96-well plates (PerkinElmer) at a density of 60,000 cells/well.
Cyclic AMP accumulation was measured using a DiscoverX HitHunter® cAMP Assay for Small Molecules (DiscoverX, Fremont, CA). hCB1R CHO cells were seeded at a density of 40,000 cells/well in 96-well white plates and grown overnight at 37 °C, 5% CO2 in a humidified incubator. […] Vehicle concentration was 1% DMSO, 0.1% BSA. Following agonist incubation, 15 µl of cAMP antibody reagent and 60 µl of working cAMP detection solution (containing 19 parts cAMP lysis buffer, 5 parts Substrate Reagent 1, 1 part Substrate Reagent 2 and 25 parts of cAMP Solution D) were added to all wells. Assay plates were incubated in the dark for 1 hr at room temperature, followed by addition of 60 µl cAMP solution A to all wells and incubation for 3 hr at room temperature in the dark. Plates were read using a GloMax Discover plate-reader (Promega, Madison, WI).

GluN1KD mice [2] = assay: Open-field test in GluN1KD mice; settings: ABM300 10 mg/kg, OLA 1 mg/kg i.p., 30 min before test
Male Sprague Dawley rats = assay: Conditioned avoidance response (CAR); format: in vivo; settings: rats, ABM300 10 mg/kg, olanzapine 1 mg/kg i.p. daily
Description: Male Sprague Dawley rats (PD>63) were trained on a CAR protocol and responding following drug exposure was determined. […] Animals were trained to learn a house light (CS) as predictive of an avoidable 0.6mA scrambled foot shock (US). Each session consisted of 50 trials and animals avoided >70% of trials on the final acquisition session were tested for CAR during vehicle baseline, drug exposure, and re-emergence. In addition to CAR testing, both temperature and catalepsy were recorded in these animals (measure of potential CB1R agonism). Temperature: recorded on first day of drug exposure, prior to injection and 60-90-min. following drug exposure.

GluN1KD mice [3] = assay: Pre-pulse inhibition in GluN1KD mice; format: in vivo; settings: ABM300 10 mg/kg, OLA 1 mg/kg i.p.
Description: Pre-Pulse Inhibition (PPI): PPI of the acoustic startle response was measured on day 3, via SR-LAB equipment and software from San Diego Instruments. Accelerometers were calibrated to 700±5 mV and output voltages were amplified and analyzed for voltage changes using SR Analysis (San Diego Instruments, San Diego, CA, USA), and exported as an excel file. Background white noise was maintained at 65dB. PPI was measured in a 30-min test with 80 randomized trials of: (1) 10 trials pulse alone (2) 10 trials pre-pulse alone (for each pre-pulse), (3) 10 trials pre-pulse plus pulse (for each pre-pulse), and (4) 10 trials no pulse. 5 pulse alone trials were performed before and after the 80 trials, totaling 90 trials per run. The pre-pulse (4dB, 8dB, or 16dB) was presented 100ms prior to the startle pulse […]. The inter-stimulus interval (ISI) was randomized between 5 and 20s. Experimental mice were placed in a cylindrical tube on a platform in a soundproof chamber. Mice were allowed to acclimatize in the chamber and to the background noise for 300s, followed by 5 consecutive pulse alone trials, then by 80 randomized trials (as described above) and then 5 consecutive pulse alone trials. Pre-pulse inhibition was measured as a decrease in the amplitude of startle response to a 100dB acoustic startle pulse, following each pre-pulse (4dB, 8dB and 16dB).

C57Bl/6J mice = format: in vivo; settings: 10 mg/kg i.p., 30 min before test, compared to vehicle
Text: (i.p.) before testing. The EPM was composed of 4 opaque-white arms (2 opposite arms closed, 2 opposite arms open), arranged in a plus shape, with an open center. The dimensions were as follows; maze elevation (38.7cm), open arm (L:30.5 cm, W:5 cm, H:0 cm), closed arm (L:30.5 cm, W:5 cm, H:15.2 cm) and center (5 cm x 5 cm). The experiment mouse was placed in the center of the maze and allowed to freely explore the maze for 8-min (50lux), while being tracked with an overhead camera. Open and closed arm times were recorded and collected by Biobserve Viewer3 software. The percentage of time spent in the open arms as compared to closed arms and center time was calculated and expressed as a percent of time spent in the open or closed arms of the maze.

CB1R [4] = target: T1, CB1R; design: beta-galactosidase enzyme fragment (EFC; ProLink by own knowledge); method as in PMID 16113085, PMID 18029031; settings: cited from earlier work
CB1R [5] = target: T1, CB1R; design: beta-galactosidase enzyme fragment (EFC; ProLink by own knowledge); method as in PMID 16113085, PMID 18029031; settings: cited from earlier work; remark: listed apart in the source

CCCCCc1cc(O)c2c(c1)OC(C)(C)[C@@H]1CCC(C)=C[C@@H]21 [THC, Δ^9-tetrahydrocannabinol, reference compound]
tetrad: catalepsy-induced immobility time (Male C57Bl/6J mice): produced effects | tetrad: percent inhibition of locomotor activity (15 min) (Male C57Bl/6J mice): produced effects | tetrad: rectal temperature (Male C57Bl/6J mice): produced effects | tetrad: tail withdrawal (% MPE) (Male C57Bl/6J mice): produced effects

CCCCCCC(C)(C)c1ccc([C@@H]2C[C@H](O)CC[C@H]2CCCO)c(O)c1 [CP55,940, reference compound]
effect on forskolin-stimulated cAMP accumulation (CB1R [1]): inhibited

Cc1cc2c(s1)Nc1ccccc1N=C2N1CCN(C)CC1 [olanzapine, reference compound]
exaggerated stereotypic activity (GluN1KD mice [2]): Effects of ABM300 are similar to those seen with olanzapine | novelty-induced hyperactivity (distance traveled) (GluN1KD mice [2]): Effects of ABM300 are similar to those seen with olanzapine | rearing behavior (vertical exploration) (GluN1KD mice [2]): Effects of ABM300 are similar to those seen with olanzapine | escape failures in CAR (Male Sprague Dawley rats): neither ABM300 nor olanzapine affected escape failures | escape responding during CAR (Male Sprague Dawley rats): enhanced escape responding | avoidance behavior in CAR (Male Sprague Dawley rats; 30 min prior): attenuated avoidance behavior | acoustic startle response (GluN1KD mice [3]): did not respond | sensorimotor gating deficits (PPI; 4, 8, 16 dB) (GluN1KD mice [3]): did not respond

Cc1c(C(=O)NN2CCCCC2)nn(-c2ccc(Cl)cc2Cl)c1-c1ccc(Cl)cc1 [rimonabant, reference compound]
time spent in the open arms (EPM) (C57Bl/6J mice): significantly reduced

CCc1c(C(=O)NCCc2ccc(N3CCCCC3)cc2)[nH]c2ccc(Cl)cc12 [Org275]
CB1R agonist-mediated signaling (CB1R [4]): acts as an inhibitor | Bmax of [3H] CB1R agonist binding (CB1R [5]): increases the Bmax
